IC50 data for 33 compounds are collected here from patent publication US10654884B2 (Vitae Pharmaceuticals, Inc., priority 2014, dated 2020).

This assay addresses T1, human CD73 (Homo sapiens, UniProt P21589).
T1 construct: purchased R&D Systems 5795-EN-010
T1 sequence (P21589 27-549): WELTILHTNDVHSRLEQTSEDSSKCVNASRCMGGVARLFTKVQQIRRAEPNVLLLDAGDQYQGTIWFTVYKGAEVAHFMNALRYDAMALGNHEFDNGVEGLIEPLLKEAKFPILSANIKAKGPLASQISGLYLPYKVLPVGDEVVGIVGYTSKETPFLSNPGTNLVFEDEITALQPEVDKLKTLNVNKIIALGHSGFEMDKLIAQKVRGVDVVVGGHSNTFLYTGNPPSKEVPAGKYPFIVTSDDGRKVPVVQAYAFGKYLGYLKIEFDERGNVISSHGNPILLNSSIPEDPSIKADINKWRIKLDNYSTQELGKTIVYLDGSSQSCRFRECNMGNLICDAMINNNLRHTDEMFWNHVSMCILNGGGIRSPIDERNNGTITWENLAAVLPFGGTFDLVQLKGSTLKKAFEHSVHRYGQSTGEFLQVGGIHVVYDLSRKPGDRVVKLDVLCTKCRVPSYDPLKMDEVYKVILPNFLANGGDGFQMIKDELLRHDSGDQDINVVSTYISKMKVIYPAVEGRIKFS
As to the kind of experiment: Inhibition of 5′-Nucleotidase Activity of CD73 (Assay 1). It is filed as biochemical. Conditions: 50 μM CMP, 20 min at RT, malachite green readout. The procedure:
Inhibition of 5′-Nucleotidase Activity of CD73 (Assay 1)
Compounds of the present invention were tested for the ability to inhibit CD73 enzyme activity. Tested compounds were dissolved in DMSO (50× final concentration), and 3.2 μL of the solutions added to 96-well polystyrene plates. To these wells were added, 100 μL of human CD73 (R&D Systems Cat. No. 5795-EN-010) and 57 μL of cytidine-5′-monophosphate (CMP) solutions in assay buffer (25 mM Tris-HCl, pH 7.4, 0.005% Brij-35) were added to achieve final concentrations in the assay of 4 ng/ml CD73 and 50 μM of CMP. The assay mixture was incubated for 20 min at RT. The reaction was stopped by addition of 40 μL of malachite green reagent which was prepared by mixing together 10 ml 2M H2SO4, 2.5 ml of 15% ammonium molybdate and 0.2 ml of 11% Tween-20. The mixture was agitated vigorously for 10 min at RT, and absorbance at 620 nm was determined on a microplate spectrophotometer. […] The IC50 values were derived using a non-linear 4 parameter logistic model (XLFit software, IDBS) and correspond to the inflection points on dose-response curves.

[1] abbreviates: human CD73 4 ng/ml, read-out: Assay 1: IC50, inhibition of 5′-nucleotidase activity of CD73.
The mark [2] stands for this setting: Assay 1: IC50, inhibition of 5′-nucleotidase activity of CD73, human CD73 4 ng/ml.

Read-outs that look alike come from different tables or passages of the source. Where only a bound is given, the exact number is not on record here.

On to `CS(=O)(=O)C(OC[C@H]1O[C@@H](n2cnc3c(N)nc(Cl)nc32)[C@H](O)[C@@H]1O)P(=O)(O)O` (single isomer, unassigned) [Example 10a], for which the half-inhibitory concentration (IC50) – broadly, the midpoint of a concentration-inhibition curve – under setting [1] was greater than 1 µM.

Consider `CCCS(=O)(=O)[C@@H](OC[C@H]1O[C@@H](n2cnc3c(N)nc(Cl)nc32)[C@H](O)[C@@H]1O)P(=O)(O)O` (single isomer, unassigned) [Example 12a], for which, under setting [1], the IC50 was greater than 1 µM.

Take `CC(C)CS(=O)(=O)[C@@H](OC[C@H]1O[C@@H](n2cnc3c(N)nc(Cl)nc32)[C@H](O)[C@@H]1O)P(=O)(O)O` (single isomer, unassigned) [Example 13a]: the IC50 under setting [1] is greater than 1 µM.

`CCOC(=O)[C@@H](OC[C@H]1O[C@@H](n2ccc(=O)n(C)c2=O)[C@H](O)[C@@H]1O)P(=O)(O)O` (single isomer, unassigned) [Example 30a]: under setting [1], the concentration for half-maximal inhibition (IC50) is greater than 1 µM.

With `CCOC(=O)[C@@H](OC[C@@H]1O[C@H](n2cnc3c(N)nc(C)nc32)[C@@H](O)[C@H]1O)P(=O)(O)O` (single isomer, unassigned) [Example 37a], under setting [1], the IC50 was greater than 1 µM.

For `CCOC(=O)[C@@H](OC[C@H]1O[C@@H](n2cnc3c(N)nc(-c4ccccc4)nc32)[C@H](O)[C@@H]1O)P(=O)(O)O` (single isomer, unassigned) [Example 40a], the IC50 under setting [1] is less than 0.1 µM.

On to `CCOC(=O)[C@@H](OC[C@H]1O[C@@H](n2cnc3c(N)nc(-c4cc(F)cc(F)c4)nc32)[C@H](O)[C@@H]1O)P(=O)(O)O` (single isomer, unassigned) [Example 41a], for which, under setting [1], the IC50 was greater than 1 µM.

As for `CCOC(=O)[C@@H](OC[C@H]1O[C@@H](n2cnc3c(N)nc(C(F)(F)F)nc32)[C@H](O)[C@@H]1O)P(=O)(O)O` (single isomer, unassigned) [Example 42a], the 50% inhibitory concentration (IC50) under setting [1] is greater than 1 µM.

In the case of `CCOC(=O)[C@@H](OC[C@H]1O[C@@H](n2cnc3c(N)nc(CC(C)C)nc32)[C@H](O)[C@@H]1O)P(=O)(O)O` (single isomer, unassigned) [Example 46a], the IC50 under setting [1] was greater than 1 µM.

Consider `CCOC(=O)[C@@H](OC[C@H]1O[C@@H](n2cnc3c(N)nc(C4CC4)nc32)[C@H](O)[C@@H]1O)P(=O)(O)O` (single isomer, unassigned) [Example 50a], for which, under setting [1], the IC50 is greater than 1 µM.

For the compound `CCOC(=O)[C@@H](OC[C@H]1O[C@@H](n2cnc3c(N)nc(C4NCCO4)nc32)[C@H](O)[C@@H]1O)P(=O)(O)O` (single isomer, unassigned) [Example 51b], the half-maximal inhibitory concentration (IC50) under setting [1] is greater than 1 µM.

In the case of `CC(C)(C)OC(=O)[C@H](OC[C@H]1O[C@@H](n2cnc3c(N)nc(CN)nc32)[C@H](O)[C@@H]1O)P(=O)(O)O` (single isomer, unassigned) [Example 55], under setting [1], the 50% inhibitory concentration (IC50) is greater than 1 µM.

With `CC(C)(C)OC(=O)[C@@H](OC[C@H]1O[C@@H](n2cnc3c(N)nc(CN)nc32)[C@H](O)[C@@H]1O)P(=O)(O)O` (single isomer, unassigned) [Example 55a], under setting [1], the IC50 was greater than 1 µM.

For the compound `Nc1ncnc2c1ncn2[C@@H]1O[C@H](CO[C@@H](CO)P(=O)(O)O)[C@@H](O)[C@H]1O` (single isomer, unassigned) [Example 57], the IC50 under setting [1] is greater than 1 µM.

Take `Nc1ncnc2c1ncn2[C@@H]1O[C@H](CO[C@H](CO)P(=O)(O)O)[C@@H](O)[C@H]1O` (single isomer, unassigned) [Example 57a]: the IC50 under setting [1] is greater than 1 µM.

Take `Cn1c(=O)ccn([C@@H]2O[C@H](CO[C@@H](C(=O)O)P(=O)(O)O)[C@@H](O)[C@H]2O)c1=O` (single isomer, unassigned) [Example 60]: the half-maximal inhibitory concentration (IC50) under setting [1] was greater than 1 µM.

For `Cn1c(=O)ccn([C@@H]2O[C@H](CO[C@H](C(=O)O)P(=O)(O)O)[C@@H](O)[C@H]2O)c1=O` (single isomer, unassigned) [Example 60a], under setting [1], the half-maximal inhibitory concentration (IC50) was greater than 1 µM.

On to `Nc1nc(Cl)nc2c1ncn2[C@@H]1O[C@H](COC(C(=O)O)P(=O)(O)O)[C@@H](O)[C@H]1O` (single isomer, unassigned) [Example 61a], for which the IC50 under setting [1] was less than 0.1 µM.

With `CCOC(=O)[C@@H](OC[C@H]1C[C@@H](n2cnc3cccc(Cl)c3c2=O)[C@H](O)[C@@H]1O)P(=O)(O)O` (single isomer, unassigned) [Example 70a], the half-maximal inhibitory concentration (IC50) under setting [1] was greater than 1 µM.

With `CCOC(=O)[C@@H](OC[C@H]1C[C@@H](n2cnc3cccc(Br)c3c2=O)[C@H](O)[C@@H]1O)P(=O)(O)O` (single isomer, unassigned) [Example 72a], the IC50 under setting [1] was greater than 1 µM.

Take `CCOC(=O)[C@@H](OC[C@H]1C[C@@H](n2cnc3cccc(C#N)c3c2=O)[C@H](O)[C@@H]1O)P(=O)(O)O` (single isomer, unassigned) [Example 73a]: under setting [1], the IC50 is greater than 1 µM.

On to `CCOC(=O)[C@@](CC(=O)O)(OC[C@H]1O[C@@H](n2cnc3c(N)nc(F)nc32)[C@H](O)[C@@H]1O)P(=O)(O)O` (single isomer, unassigned) [Example 79a], for which, under setting [1], the IC50 lay within 0.1 to 1 µM.

With `CCNc1nc(Cl)nc2c1ncn2[C@@H]1O[C@H](CO[C@@](C)(C(=O)OCC)P(=O)(O)OCC)[C@@H](O)[C@H]1O` (single isomer, unassigned) [Example 80], the concentration for half-maximal inhibition (IC50) under setting [2] was greater than 1 µM.

Under setting [2], `CCNc1nc(Cl)nc2c1ncn2[C@@H]1O[C@H](CO[C@](C)(C(=O)OCC)P(=O)(O)OCC)[C@@H](O)[C@H]1O` (single isomer, unassigned) [Example 80a] gave an IC50 greater than 1 µM.

For `CCOC(=O)C(OC[C@H]1O[C@@H](n2cnc3cc(Cl)c(Cl)cc32)[C@H](O)[C@@H]1O)P(=O)(O)O` (single isomer, unassigned) [Example 81], the IC50 under setting [1] is greater than 1 µM.

With `CCOC(=O)C(OC[C@H]1O[C@@H](n2cnc3cc(Cl)c(Cl)cc32)[C@H](O)[C@@H]1O)P(=O)(O)O` (single isomer, unassigned) [Example 81a], the IC50 under setting [1] is greater than 1 µM.

As for `CCOC(=O)C(OC[C@H]1O[C@@H](n2cnc3ccc(Cl)nc32)[C@H](O)[C@@H]1O)P(=O)(O)O` (single isomer, unassigned) [Example 87a], the concentration for half-maximal inhibition (IC50) under setting [1] was greater than 1 µM.

On to `Nc1ncnc2c1ncn2[C@@H]1O[C@H](COC(C(=O)O)C(=O)O)[C@@H](O)[C@H]1O` [Example 8, 2-(((2R,3S,4R,5R)-5-(6-amino-9H-purin-9-yl)-3,4-dihydroxytetrahydrofuran-2-yl)methoxy)malonic acid], for which the IC50 under setting [1] is greater than 1 µM.

As for `CNC(=O)C(OC[C@H]1O[C@@H](n2ccc(=O)n(C)c2=O)[C@H](O)[C@@H]1O)P(=O)(O)O` (stereo partly drawn) [Example 31, (1-(((2R,3S,4R,5R)-3,4-dihydroxy-5-(3-methyl-2,4-dioxo-3,4-dihydropyrimidin-1(2H)-yl)tetrahydrofuran-2-yl)methoxy)-2-(methylamino)-2-oxoethyl)phosphonic Acid], the IC50 under setting [1] was greater than 1 µM.

For the compound `CCNC(=O)C(OC[C@H]1O[C@@H](n2ccc(=O)n(C)c2=O)[C@H](O)[C@@H]1O)P(=O)(O)O` (stereo partly drawn) [Example 32, (1-(((2R,3S,4R,5R)-3,4-dihydroxy-5-(3-methyl-2,4-dioxo-3,4-dihydropyrimidin-1(2H)-yl)tetrahydrofuran-2-yl)methoxy)-2-(ethylamino)-2-oxoethyl)phosphonic Acid], the IC50 under setting [1] is greater than 1 µM.

For `Nc1ncnc2c1ncn2[C@@H]1O[C@H](COC(C(=O)NO)P(=O)(O)O)[C@@H](O)[C@H]1O` (stereo partly drawn) [Example 35, (1-(((2R,3S,4R,5R)-5-(6-amino-9H-purin-9-yl)-3,4-dihydroxytetrahydrofuran-2-yl)methoxy)-2-(hydroxyamino)-2-oxoethyl)phosphonic Acid], the IC50 under setting [1] was greater than 1 µM.

`COC(=O)C(SC[C@H]1O[C@@H](n2cnc3c(N)ncnc32)[C@H](O)[C@@H]1O)P(=O)(O)O` (stereo partly drawn) [Example 56, (1-((((2S,3S,4R,5R)-5-(6-amino-9H-purin-9-yl)-3,4-dihydroxytetrahydrofuran-2-yl)methyl)thio)-2-methoxy-2-oxoethyl)phosphonic Acid]: the IC50 under setting [1] is greater than 1 µM.

`CC(C)Nc1ncnc2c1ncn2[C@@H]1O[C@H](COC(C(=O)O)P(=O)(O)O)[C@@H](O)[C@H]1O` (stereo partly drawn) [Example 64, 2-(((2R,3S,4R,5R)-3,4-dihydroxy-5-(6-(isopropylamino)-9H-purin-9-yl)tetrahydrofuran-2-yl)methoxy)-2-phosphonoacetic acid]: under setting [1], the IC50 was greater than 1 µM.
